# Measurements as given in PMC2364081, “Antagonists of retinoic acid receptors (RARs) are potent growth inhibitors of prostate carcinoma cells” (British Journal of Cancer, 2001).
# Legend:
# RARα [1] = biological target: T1, RARα (Homo sapiens, UniProt P10276); assay: Binding to baculovirus-expressed RARα; design: made in house; details: baculovirus-expressed receptor
# T1 sequence (P10276 1-462): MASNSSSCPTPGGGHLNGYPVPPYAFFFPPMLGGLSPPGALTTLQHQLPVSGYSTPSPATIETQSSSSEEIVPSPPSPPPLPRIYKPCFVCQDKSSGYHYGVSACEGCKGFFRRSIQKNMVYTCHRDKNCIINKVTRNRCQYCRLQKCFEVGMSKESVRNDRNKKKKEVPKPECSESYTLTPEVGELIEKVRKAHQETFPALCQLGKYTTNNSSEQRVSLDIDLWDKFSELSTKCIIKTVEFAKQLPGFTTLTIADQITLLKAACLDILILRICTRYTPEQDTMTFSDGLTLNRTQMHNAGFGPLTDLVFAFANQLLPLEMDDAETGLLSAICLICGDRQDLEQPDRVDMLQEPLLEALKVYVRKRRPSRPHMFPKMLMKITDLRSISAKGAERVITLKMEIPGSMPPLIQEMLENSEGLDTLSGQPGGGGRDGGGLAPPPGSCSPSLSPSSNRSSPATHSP
# Excerpt: (§1) Prostate cancer is one of the most common cancers in European and American males and has a high mortality rate (Landis et al, 1998; Rosenthal, 1998). Early disease is managed conservatively in Europe although in selected patients surgery is curative. In advanced disease, androgen ablation can produce symptomatic improvement, but the tumour often re-emerges in an androgen- independent and incurable form. One proposed treatment for androgen-independent prostate carcinoma is differentiation ther- apy, in which agents such as all-trans-retinoic acid (ATRA), 9-cis- retinoic acid and 1, 25-dihydroxyvitamin D3 (D3 ) are used to induce growth arrest, differentiation and sometimes apoptosis of the tumour cells (Liang et al, 1999; de Vos et al, 1997; Skowronski et al, 1994; Hedlund et al, 1997). ATRA and synthetic analogues exert their biological effects by binding to two families of retinoid receptors, […]. These are ligand-dependent transcription factors of the steroid/thyroid hormone nuclear receptor superfamily (Chambon 1994; Boehm et al, 1995). Activated RARs bind to retinoic acid-responsive elements (RAREs) in the promoters of genes and thus regulate gene expression. They also antagonize the activity of the tran- scription factor AP1 and thereby down-regulate the expression of some AP1-activated genes (Nagpal et al, 1995). One approach to unravelling the contributions of RAR sub-types to these actions has been the development of synthetic retinoids with selective activities at individual RARs and RXRs. For example, the diaryl- acetylenic retinoids allow separation of transactivation and AP1 antagonism functions at RAR (Nagpal et al, 1995). Recently, compounds that are selective for particular RAR sub-types have been synthesized: these include both agonists and antagonists (Chandraratna, 1995; Teng et al, 1999; Johnson et al, 1999). The functional selectivity of these compounds may open the way to achieving differentiation or apoptosis of tumour cells with minimal systemic side effects (Chandraratna, 1995). Cell lines that are commonly used in the evaluation of investiga- tional agents for prostate cancer include LNCaP, DU-145 and PC- 3. […] These lines are relatively insensitive to growth inhibition and induction of apoptosis by ATRA and by synthetic agonists. […] Fenretinide (4HPR) induces apoptosis of LNCaP and of PC-3 cells at 1-5 M and 25 µM, respectively (Pienta et al, 1993; Heish and Wu, 1997). Pfahl and colleagues examined the growth inhibitory effects of a panel of receptor-selective retinoids against DU145 and PC-3 cells and achieved complete growth inhibition and induction of apoptosis between 1 M and 10 M (Lu et al, 1999). […] Antagonists of retinoic acid receptors (RARs) are potent growth inhibitors of prostate carcinoma cells LA Hammond1 , CH Van Krinks2 , J Durham2 , SE Tomkins2 , RD Burnett3 , EL Jones1 , RAS Chandraratna3 and G Brown2 Divisions of 1 Cancer Studies and of 2 Immunity and Infection, University of Birmingham Medical School, Edgbaston, Birmingham B15 2TT, UK and 3 Retinoid Research, Allergan Inc., Irvine, California, USA Summary Novel synthetic antagonists of retinoic acid receptors (RARs) have been developed. To avoid interference by serum retinoids when testing these compounds, we established serum-free grown sub-lines (>3 years) of the prostate carcinoma lines LNCaP, PC3 and DU145. […] A component(s) of serum and of LNCaP-conditioned medium diminishes the activity of antagonists: this factor is not the most likely candidates IGF-1 and EGF. In vitro studies of RAR antagonists together with data from RAR-null mice lead to the hypothesis that RAR-regulated gene transcription is necessary for the survival and maintenance of prostate epithelium. […]
# RARβ [2] = biological target: T2, RARβ (Homo sapiens, UniProt P10826); assay: Binding to baculovirus-expressed RARβ; design: made in house; details: baculovirus-expressed receptor
# T2 sequence (P10826 1-455): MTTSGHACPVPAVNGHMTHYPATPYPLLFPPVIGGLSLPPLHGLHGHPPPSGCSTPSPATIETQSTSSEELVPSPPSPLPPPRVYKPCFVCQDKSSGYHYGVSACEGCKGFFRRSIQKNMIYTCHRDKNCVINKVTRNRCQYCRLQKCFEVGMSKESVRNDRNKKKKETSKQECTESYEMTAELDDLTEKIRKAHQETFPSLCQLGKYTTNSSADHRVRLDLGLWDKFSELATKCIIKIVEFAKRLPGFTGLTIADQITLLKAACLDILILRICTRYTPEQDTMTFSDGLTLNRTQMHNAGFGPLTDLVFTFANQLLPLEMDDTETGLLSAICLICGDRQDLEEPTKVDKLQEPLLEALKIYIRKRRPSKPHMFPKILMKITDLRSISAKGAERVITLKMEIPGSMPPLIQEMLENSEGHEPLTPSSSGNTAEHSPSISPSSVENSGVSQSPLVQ
# Excerpt: as §1
# RARγ [3] = biological target: T3, RARγ (Homo sapiens, UniProt P13631); assay: Binding to baculovirus-expressed RARγ; design: made in house; details: baculovirus-expressed receptor
# T3 sequence (P13631 1-454): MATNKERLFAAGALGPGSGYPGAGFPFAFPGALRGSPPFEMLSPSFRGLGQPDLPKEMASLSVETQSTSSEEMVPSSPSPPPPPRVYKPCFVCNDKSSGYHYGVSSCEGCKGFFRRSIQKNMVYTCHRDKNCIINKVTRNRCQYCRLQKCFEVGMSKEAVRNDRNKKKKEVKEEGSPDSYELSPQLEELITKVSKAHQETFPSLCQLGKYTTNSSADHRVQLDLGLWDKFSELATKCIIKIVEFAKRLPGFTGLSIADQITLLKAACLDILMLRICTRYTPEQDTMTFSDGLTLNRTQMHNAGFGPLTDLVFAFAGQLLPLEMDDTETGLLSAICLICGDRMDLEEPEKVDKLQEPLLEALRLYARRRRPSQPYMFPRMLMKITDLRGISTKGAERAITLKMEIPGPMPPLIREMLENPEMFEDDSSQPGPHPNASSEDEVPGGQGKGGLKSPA
# Excerpt: as §1
# RARα [4] = biological target: T1, RARα; assay: Transactivation by RARα in doubly transfected CV-1 cells (MTV-TREp-LUC reporter); type: cell-based; design: expressed in transfected cells; host or cells: CV-1 cells
# Excerpt: (§2) Prostate cancer is one of the most common cancers in European and American males and has a high mortality rate (Landis et al, 1998; Rosenthal, 1998). Early disease is managed conservatively in Europe although in selected patients surgery is curative. In advanced disease, androgen ablation can produce symptomatic improvement, but the tumour often re-emerges in an androgen- independent and incurable form. One proposed treatment for androgen-independent prostate carcinoma is differentiation ther- apy, in which agents such as all-trans-retinoic acid (ATRA), 9-cis- retinoic acid and 1, 25-dihydroxyvitamin D3 (D3 ) are used to induce growth arrest, differentiation and sometimes apoptosis of the tumour cells (Liang et al, 1999; de Vos et al, 1997; Skowronski et al, 1994; Hedlund et al, 1997). ATRA and synthetic analogues exert their biological effects by binding to two families of retinoid receptors, the RARs (RAR, RAR and RAR) and the RXRs (RXR, RXR and RXR). These are ligand-dependent transcription factors of the steroid/thyroid hormone nuclear receptor superfamily (Chambon 1994; Boehm et al, 1995). Activated RARs bind to retinoic acid-responsive elements (RAREs) in the promoters of genes and thus regulate gene expression. They also antagonize the activity of the tran- scription factor AP1 and thereby down-regulate the expression of some AP1-activated genes (Nagpal et al, 1995). One approach to unravelling the contributions of RAR sub-types to these actions has been the development of synthetic retinoids with selective activities at individual RARs and RXRs. For example, the diaryl- acetylenic retinoids allow separation of transactivation and AP1 antagonism functions at RAR (Nagpal et al, 1995). Recently, compounds that are selective for particular RAR sub-types have been synthesized: these include both agonists and antagonists (Chandraratna, 1995; Teng et al, 1999; Johnson et al, 1999). The functional selectivity of these compounds may open the way to achieving differentiation or apoptosis of tumour cells with minimal systemic side effects (Chandraratna, 1995). […]
# RARβ [5] = biological target: T2, RARβ; assay: Transactivation by RARβ in doubly transfected CV-1 cells (MTV-TREp-LUC reporter); type: cell-based; design: expressed in transfected cells; host or cells: CV-1 cells; key to EC50 transactivation RARβ: NA: inactive; WA: weak partial agonist
# Excerpt: as §2
# RARγ [6] = biological target: T3, RARγ; assay: Transactivation by RARγ in doubly transfected CV-1 cells (MTV-TREp-LUC reporter); type: cell-based; design: expressed in transfected cells; host or cells: CV-1 cells; key to EC50 transactivation RARγ: NA: inactive; WA: weak partial agonist
# Excerpt: as §2, with “1995).” for “1995). One approach to unravelling the contributions of RAR sub-types to these actions has been the development of synthetic retinoids with selective activities at individual RARs and RXRs. For example, the diaryl- acetylenic retinoids allow separation of transactivation and AP1 antagonism functions at RAR (Nagpal et al, 1995). Recently, compounds that are selective for particular RAR sub-types have been synthesized: these include both agonists and antagonists (Chandraratna, 1995; Teng et al, 1999; Johnson et al, 1999). The functional selectivity of these compounds may open the way to achieving differentiation or apoptosis of tumour cells with minimal systemic side effects (Chandraratna, 1995).”
# [7] = system: LNCaP, PC3 and DU145 cells; assay: Plate colony formation assay, stated over the three serum-free grown lines; type: cell-based, human
# Excerpt: as §1
# FBS-grown DU145 cells = assay: Plate colony formation assay, FBS-grown DU145; type: cell-based, human; design: dose or concentration left out as unconfirmed; details: ATRA
# Excerpt: as §2, with “1995).” for “1995). One approach to unravelling the contributions of RAR sub-types to these actions has been the development of synthetic retinoids with selective activities at individual RARs and RXRs. For example, the diaryl- acetylenic retinoids allow separation of transactivation and AP1 antagonism functions at RAR (Nagpal et al, 1995). Recently, compounds that are selective for particular RAR sub-types have been synthesized: these include both agonists and antagonists (Chandraratna, 1995; Teng et al, 1999; Johnson et al, 1999). The functional selectivity of these compounds may open the way to achieving differentiation or apoptosis of tumour cells with minimal systemic side effects (Chandraratna, 1995).”
# LNCaP cells = details: ref Gao et al, 1999; cited from earlier work
# PC-3 and DU-145 cells = system: PC-3 and DU-145 cells; design: method as in Lu et al, 1997 and 1999; dose or concentration left out as unconfirmed; details: ref Lu et al, 1997 and 1999; cited from earlier work
# LNCaP ITS+ cells = assay: Plate colony formation (clonal proliferation) assay, serum-free (ITS+)-grown LNCaP; type: cell-based, human
# Excerpt: as §1
# PC3 ITS+ cells = assay: Plate colony formation assay, serum-free (ITS+)-grown PC3; type: cell-based, human; details: 14 days
# Excerpt: as §2
# DU145 ITS+ cells = assay: Plate colony formation assay, serum-free (ITS+)-grown DU145; type: cell-based, human; details: 14 days
# Excerpt: as §2
# breast carcinoma lines = system: breast carcinoma lines; design: method as in Fanjul et al, 1998; details: low serum (0.5%); ref Fanjul et al, 1998; cited from earlier work
smiles,measurement,setting,value
CC(C)N1CCC(C)(C)c2cc(C(=O)Nc3ccc(C(=O)O)c(F)c3)c(O)cc21 [AGN195153],Kd,RARα [1],40 nM
same,Kd,RARβ [2],> 5000 nM
same,Kd,RARγ [3],> 5000 nM
same,EC50,RARα [4],130 nM
same,EC50 transactivation RARβ,RARβ [5],WA
same,EC50 transactivation RARγ,RARγ [6],WA
"CC1=C(/C=C/C(C)=C/C=C/C(C)=C/C(=O)O)C(C)(C)CCC1 [ATRA, all-trans retinoic acid]",effect on colony formation,"[7]; 100 nM, three cell lines, ITS+ and FBS cells",little effect
same,reduction in colony formation,FBS-grown DU145 cells,< 1%
same,concentration inducing apoptosis,LNCaP cells,2 µM
same,growth inhibition and apoptosis,PC-3 and DU-145 cells,neither inhibits the growth nor induces apoptosis
"C/C(=C\c1ccc(C(=O)O)cc1)c1ccc2c(c1)C(C)(C)CCC2(C)C [TTNPB, reference compound]",inhibition of colony formation,LNCaP ITS+ cells; TTNPB alone at 10 -6 M,> 90%
same,inhibition of colony formation,LNCaP ITS+ cells; TTNPB alone at 10 -7 M,~ 10%
Cc1ccc(C2=CCC(C)(C)c3ccc(N=Nc4ccc(C(=O)O)cc4F)cc32)cc1 [AGN194431],IC50,"LNCaP ITS+ cells; LNCaP, serum-free (ITS+), 14 days",99 nM
same,IC50,PC3 ITS+ cells,104 nM
same,IC50,DU145 ITS+ cells,88 nM
same,IC50,"[7]; stated over all three serum-free grown lines, read-out: concentration inhibiting colony formation by 50% (IC50)",~100 nM
same,Kd,RARα [1],300 nM
same,Kd,RARβ [2],6 nM
same,Kd,RARγ [3],70 nM
COCCOCOc1ccc(C(=O)/C=C/c2ccc(C(=O)O)cc2)cc1C12CC3CC(CC(C3)C1)C2 [MX781],concentration abolishing cell proliferation,breast carcinoma lines,> 1 µM
